These results are taken from publication PMC6150239 (Molecules : A Journal of Synthetic Chemistry and Natural …, 2017).

The nature of data set [1]: Human liver microsome stability assay. Type of data set: in vitro ADME. To be noted: human liver microsomes, 1 μM, 37 °C; CLint = k/P.
Details of data set [2]: method as in PMID 27079428. To be noted: cited from earlier work.

With `C[C@]12CC[C@H]3[C@@H](CCC4=CC(=O)CC[C@@]43C)[C@@H]1CC[C@@H]2O` [Testosterone, testosterone, reference compound], the “CLint (intrinsic clearance)” value in data set [1] came out at 0.0727 mL/min/mg Protein.
Take `[2H]C([2H])([2H])Oc1cc2c(cc1OC([2H])([2H])[2H])C1CC(=O)C(CC(C)C)CN1CC2` (stereo not drawn) [deutetrabenazine]: the t1/2 in data set [2] is given as 8.6 h.
Consider `COc1cc2c(cc1OC)C1CC(=O)C(CC(C)C)CN1CC2` (stereo not drawn) [tetrabenazine], for which, in data set [2], the t1/2 is listed as 4.8 h.
